From ChEMBL document CHEMBL3046684, “Molecular docking study on anticancer activity of plant-derived natural products” (Med Chem Res, 2010)

Assays:
[1] = target: Apoptosis regulator Bcl-2 (Homo sapiens, UniProt P10415); assay: Displacement of NLWAAQRYGRELRRMSD-K(FITC)-FVD from Bcl-2 (unknown origin) by fluorescence polarization assay
[2] = target: T1, DNA topoisomerase 2 (Saccharomyces cerevisiae S288c, UniProt P06786); assay: Inhibition of Saccharomyces cerevisiae DNA topoisomerase 2
T1 sequence (P06786 whole entry): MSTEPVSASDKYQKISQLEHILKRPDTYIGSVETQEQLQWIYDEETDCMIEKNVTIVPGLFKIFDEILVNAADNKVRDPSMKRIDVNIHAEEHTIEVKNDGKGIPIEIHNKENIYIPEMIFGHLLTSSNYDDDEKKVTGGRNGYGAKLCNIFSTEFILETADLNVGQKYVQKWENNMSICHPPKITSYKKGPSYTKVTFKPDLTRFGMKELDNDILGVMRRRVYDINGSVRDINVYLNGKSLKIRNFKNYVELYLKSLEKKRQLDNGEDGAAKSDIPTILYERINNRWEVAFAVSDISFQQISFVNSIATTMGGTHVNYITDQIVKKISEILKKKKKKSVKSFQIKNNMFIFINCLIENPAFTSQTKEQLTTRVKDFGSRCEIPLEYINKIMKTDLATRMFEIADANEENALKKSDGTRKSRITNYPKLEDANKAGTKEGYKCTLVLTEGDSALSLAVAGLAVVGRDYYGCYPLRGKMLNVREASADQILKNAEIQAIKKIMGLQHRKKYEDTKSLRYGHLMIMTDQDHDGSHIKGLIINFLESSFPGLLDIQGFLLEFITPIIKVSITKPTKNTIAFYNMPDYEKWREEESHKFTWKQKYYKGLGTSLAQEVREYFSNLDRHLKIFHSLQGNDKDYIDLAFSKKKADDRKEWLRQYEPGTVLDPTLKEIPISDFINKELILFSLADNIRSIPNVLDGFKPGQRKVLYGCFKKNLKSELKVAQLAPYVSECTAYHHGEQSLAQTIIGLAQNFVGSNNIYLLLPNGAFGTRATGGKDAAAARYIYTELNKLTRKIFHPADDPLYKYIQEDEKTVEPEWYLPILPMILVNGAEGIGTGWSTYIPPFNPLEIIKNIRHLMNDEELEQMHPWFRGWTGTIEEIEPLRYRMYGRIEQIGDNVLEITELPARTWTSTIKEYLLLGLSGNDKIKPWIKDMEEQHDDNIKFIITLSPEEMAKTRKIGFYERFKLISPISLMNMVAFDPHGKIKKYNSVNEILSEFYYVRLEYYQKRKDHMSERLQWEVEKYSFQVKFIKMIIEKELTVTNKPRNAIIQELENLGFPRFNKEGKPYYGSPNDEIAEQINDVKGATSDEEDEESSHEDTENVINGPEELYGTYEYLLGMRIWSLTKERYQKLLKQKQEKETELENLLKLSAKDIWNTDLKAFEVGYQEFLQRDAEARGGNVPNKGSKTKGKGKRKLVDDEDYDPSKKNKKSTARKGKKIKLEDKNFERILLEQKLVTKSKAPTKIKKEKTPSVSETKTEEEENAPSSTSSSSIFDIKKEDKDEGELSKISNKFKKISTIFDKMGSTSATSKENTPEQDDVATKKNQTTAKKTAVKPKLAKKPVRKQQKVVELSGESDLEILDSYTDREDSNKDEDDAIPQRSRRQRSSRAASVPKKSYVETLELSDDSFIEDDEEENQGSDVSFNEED

[3] = target: T2, DNA topoisomerase 1 (Homo sapiens, UniProt P11387); assay: Inhibition of DNA topoisomerase 1 (unknown origin)
T2 sequence (P11387 whole entry): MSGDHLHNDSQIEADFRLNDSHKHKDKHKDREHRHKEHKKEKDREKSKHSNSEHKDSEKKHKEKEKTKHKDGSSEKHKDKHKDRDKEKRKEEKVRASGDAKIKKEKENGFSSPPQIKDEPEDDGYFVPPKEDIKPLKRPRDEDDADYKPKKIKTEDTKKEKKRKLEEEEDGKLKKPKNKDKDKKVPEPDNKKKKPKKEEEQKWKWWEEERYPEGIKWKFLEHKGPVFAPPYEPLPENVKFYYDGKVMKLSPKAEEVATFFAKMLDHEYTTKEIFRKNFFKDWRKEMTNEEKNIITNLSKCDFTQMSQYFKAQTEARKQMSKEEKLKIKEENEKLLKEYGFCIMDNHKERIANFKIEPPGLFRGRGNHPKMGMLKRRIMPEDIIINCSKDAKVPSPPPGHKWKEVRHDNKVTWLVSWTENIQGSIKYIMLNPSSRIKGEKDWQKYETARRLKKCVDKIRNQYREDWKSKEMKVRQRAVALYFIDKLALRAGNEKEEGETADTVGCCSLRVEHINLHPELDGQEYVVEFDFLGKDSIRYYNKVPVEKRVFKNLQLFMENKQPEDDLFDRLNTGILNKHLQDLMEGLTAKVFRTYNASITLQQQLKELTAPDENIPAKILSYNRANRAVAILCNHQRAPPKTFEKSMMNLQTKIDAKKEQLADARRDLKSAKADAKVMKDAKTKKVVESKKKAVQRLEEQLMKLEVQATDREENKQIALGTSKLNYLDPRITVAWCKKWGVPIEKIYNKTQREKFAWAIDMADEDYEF

[4] = Binding affinity to Homo sapiens (human) G-quadruplex DNA assessed as formation of VNTR6-1 mutant complex after 2 min by PCR stop assay
[5] = Binding affinity to Homo sapiens (human) G-quadruplex DNA assessed as formation of G4TER2 mutant complex after 2 min by PCR stop assay
[6] = Binding affinity to Homo sapiens (human) G-quadruplex DNA assessed as formation of G4TER1 mutant complex after 2 min by PCR stop assay

Chain of Apoptosis regulator Bcl-2 (P10415 whole entry): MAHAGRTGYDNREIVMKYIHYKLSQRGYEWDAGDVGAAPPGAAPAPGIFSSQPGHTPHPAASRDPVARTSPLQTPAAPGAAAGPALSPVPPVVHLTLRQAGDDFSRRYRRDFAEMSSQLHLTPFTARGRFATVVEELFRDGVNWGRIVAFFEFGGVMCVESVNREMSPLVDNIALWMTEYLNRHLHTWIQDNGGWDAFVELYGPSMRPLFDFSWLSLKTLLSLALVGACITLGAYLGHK

Compound: Oc1cc(O)c2c(c1)O[C@H](c1ccc(O)c(O)c1)[C@H](O)C2 [(-)-EPICATECHIN]
- Ki [1]: > 100 µM

Compound: O=C(O[C@@H]1Cc2c(O)cc(O)cc2O[C@H]1c1ccc(O)c(O)c1)c1cc(O)c(O)c(O)c1 [CATECHIN GALLATE]
- Ki [1]: 0.23 µM

Compound: Oc1cc(O)c2c(c1)O[C@H](c1ccc(O)c(O)c1)[C@@H](O)C2 [CATECHIN]
- Ki [1]: > 100 µM

Compound: O=C(O[C@@H]1Cc2c(O)cc(O)cc2O[C@@H]1c1ccc(O)c(O)c1)c1cc(O)c(O)c(O)c1 [EPICATECHIN GALLATE]
- Ki [1]: 0.4 µM

Compound: Oc1cc(O)c2c(c1)O[C@H](c1cc(O)c(O)c(O)c1)[C@H](O)C2 [EPIGALLOCATECHIN]
- Ki [1]: > 100 µM

Compound: O=C(O[C@@H]1Cc2c(O)cc(O)cc2O[C@@H]1c1cc(O)c(O)c(O)c1)c1cc(O)c(O)c(O)c1 [EPIGALOCATECHIN GALLATE]
- IC50 [2]: 3000 µM
- Ki [1]: 0.335 µM

Compound: O=C(O[C@@H]1Cc2c(O)cc(O)cc2O[C@H]1c1cc(O)c(O)c(O)c1)c1cc(O)c(O)c(O)c1 [GALLOCATECHIN GALLATE]
- Ki [1]: 0.235 µM

Compound: Oc1cc(O)c2c(c1)O[C@H](c1cc(O)c(O)c(O)c1)[C@@H](O)C2 [GALLOCATECHIN]
- Ki [1]: > 100 µM

Compound: O=c1c(O)c(-c2cc(O)c(O)c(O)c2)oc2cc(O)cc(O)c12 [MYRICETIN]
- IC50 [3]: 37.4 µM

Compound: Cc1oc2nc1-c1nc(co1)-c1nc(co1)-c1nc(co1)-c1nc(co1)-c1nc(co1)C1=NC(CS1)c1nc-2c(C)o1 (centres undefined) [TELOMESTATIN]
- IC50 [4]: 9 µM
- IC50 [5]: 10 µM
- IC50 [6]: 10 µM

Compound: O=c1c(O)cccc2c([C@H]3Oc4cc(O)cc(O)c4C[C@H]3O)cc(O)c(O)c12 [THEAFLAVANIN]
- Ki [1]: 0.286 µM
